# Where a name gives a salt, the structure may show the parent alone.
# Test: Human plasma stability (Protocols 1 and 2)
# Assay type: in vitro ADME
# Settings: Protocol 1; human plasma pH 7.4, 1 μM, 37° C., 2 h
# Method: Example B6: Human Plasma Stability
# Studies were carried out in human plasma. All plasma was obtained from Bioreclamation and collected on sodium heparin. Plasma was adjusted to pH 7.4. A DMSO stock was first prepared for the test compound. An aliquot of the DMSO solution was dosed into 1 mL of plasma, which had been pre-warmed to 37° C., at a final test compound concentration of 1 μM. The vials were kept in a benchtop Thermomixer® for the duration of the experiment. Aliquots (100 μL) were taken at each time point (0, 15, 30, 60, and 120 minutes) and added to 96-well plates which had been pre-filled with 300 μL of acetonitrile. Samples were stored at 4° C. until the end of the experiment. After the final time point was sampled, the plate was mixed and then centrifuged at 3,000 rpm for 10 minutes. Aliquots of the supernatant were removed, diluted 1:1 into distilled water, and analyzed by LC-MS/MS. The peak area response ratio to internal standard (PARR) of the compound at 15, 30, 60 and 120 minutes was compared to the PARR at time 0 to determine the percent of test compound remaining at each time point. Half-lives were calculated using GraphPad software, fitting to a single-phase exponential decay equation.
# Studies were carried out in plasma. Plasma was prepared under approval of IRB and IACUC on sodium heparin. The pH of plasma was monitored and used within the range of pH 7.4 to pH 8.0. DMSO stocks were prepared for the test compounds. Aliquots of the DMSO solutions were diluted to 0.05 mM by 0.05 mM Sodium phosphate buffer with 0.5% BSA. Then 10 μL of 0.05 mM solutions were dosed into 90 μL of plasma in duplicates (n=2), which had been pre-warmed to 37° C., at a final test compound concentration of 5 μM. The plates were kept in a 37° C. water bath for the duration of the experiment. At each time point (0, 5, 15, 30, 45, 60, and 120 minutes), 400 μL of acetonitrile was added into corresponding wells. After the final time point was sampled, the plates were shaken at the vibrator (IKA, MTS 2/4) for 10 min (600 rpm/min) and then centrifuged at 5594 g for 15 min (Thermo Multifuge×3R). Aliquots of the supernatant were removed, diluted 1:1 into distilled water, and analyzed by LC-MS/MS. The peak area response ratio to internal standard (PARR) of the compounds at 5, 15, 30, 45, 60, and 120 minutes was compared to the PARR at time 0 to determine the percent of test compound remaining at each time point. Half-lives were calculated using Excel software, fitting to a single-phase exponential decay equation.
row,Structure (SMILES),% Remaining @ 2 h [%]
1,"Cl.O=C(OCC12CCN(CC1)CC2)c1c[nH]c2cc3c(cc12)OCCO3 [Compound 30, Quinuclidin-4-ylmethyl 2,3-dihydro-6H-[1,4]dioxino[2,3-f]indole-8-carboxylate hydrochloride]",10

# Same assay, conditions: human, plasma, 2 h, 1 μM, pH 7.4
row,Structure (SMILES),% Remaining @ 2 h [%]
1,"N#Cc1ccc2c(C(=O)OCC34CCN(CC3)CC4)c[nH]c2c1 [Compound 28, quinuclidin-4-ylmethyl 6-cyano-1H-indole-3-carboxylate]",79
2,"O=C(OCC12CCN(CC1)CC2)c1c[nH]c2cccc(Br)c12 [Compound 24, quinuclidin-4-ylmethyl 4-bromo-1H-indole-3-carboxylate]",89
3,"O=C(OCC12CCN(CC1)CC2)c1c[nH]c2ccc(Br)cc12 [Compound 23, quinuclidin-4-ylmethyl 5-bromo-1H-indole-3-carboxylate]",21
4,"O=C(OCC12CCN(CC1)CC2)c1c[nH]c2cccc(Cl)c12 [Compound 35, quinuclidin-4-ylmethyl 4-chloro-1H-indole-3-carboxylate]",56
5,"O=C(OCC12CCN(CC1)CC2)c1c[nH]c2ccc(F)cc12 [Compound 12, quinuclidin-4-ylmethyl 5-fluoro-1H-indole-3-carboxylate]",31
6,"Cc1cccc2[nH]cc(C(=O)OCC34CCN(CC3)CC4)c12 [Compound 21, quinuclidin-4-ylmethyl 4-methyl-1H-indole-3-carboxylate]",83
7,"COc1ccc2[nH]cc(C(=O)OCC34CCN(CC3)CC4)c2c1C [Compound 34, quinuclidin-4-ylmethyl 5-methoxy-4-methyl-1H-indole-3-carboxylate]",55
8,"Cc1ccc2[nH]cc(C(=O)OCC34CCN(CC3)CC4)c2c1 [Compound 20, quinuclidin-4-ylmethyl 5-methyl-1H-indole-3-carboxylate]",14

# Same assay, conditions: human, plasma, pH 7.4
Structure (SMILES),T1/2,half-life at 5 μM [h]
"O=C(OCC12CCN(CC1)CC2)c1c[nH]c2cc(F)cc(Br)c12 [Compound 41, quinuclidin-4-ylmethyl 4-bromo-6-fluoro-1H-indole-3-carboxylate]",∞,–
"COc1cc(C)c2c(C(=O)OCC34CCN(CC3)CC4)c[nH]c2c1 [Compound 37, quinuclidin-4-ylmethyl 6-methoxy-4-methyl-1H-indole-3-carboxylate]",∞,–
"Cc1c(F)ccc2[nH]cc(C(=O)OCC34CCN(CC3)CC4)c12 [Compound 43, quinuclidin-4-ylmethyl 5-fluoro-4-methyl-1H-indole-3-carboxylate]",∞,–
"COc1cc(C#N)cc2[nH]cc(C(=O)OCC34CCN(CC3)CC4)c12 [Compound 77, quinuclidin-4-ylmethyl 6-cyano-4-methoxy-1H-indole-3-carboxylate]",–,3.87
"O=C(OCC12CCN(CC1)CC2)c1c[nH]c2cc(Cl)cc(Br)c12 [Compound 42, quinuclidin-4-ylmethyl 4-bromo-6-chloro-1H-indole-3-carboxylate]",–,2.87
"O=C(OCC12CCN(CC1)CC2)c1c[nH]c2ccc3c(c12)OCCO3 [Compound 81, quinuclidin-4-ylmethyl 2,3-dihydro-7H-[1,4]dioxino[2,3-e]indole-9-carboxylate]",–,4.5
"O=C(OCC12CCN(CC1)CC2)c1c[nH]c2ccc(F)c(Br)c12 [Compound 67, quinuclidin-4-ylmethyl 4-bromo-5-fluoro-1H-indole-3-carboxylate]",–,96.9
"COc1cc2c(C(=O)OCC34CCN(CC3)CC4)c[nH]c2cc1O [Compound 86, quinuclidin-4-ylmethyl 6-hydroxy-5-methoxy-1H-indole-3-carboxylate]",–,0.954
"O=C(OCC12CCN(CC1)CC2)c1c[nH]c2cccc(C3CC3)c12 [Compound 61, Quinuclidin-4-ylmethyl 4-cyclopropyl-1H-indole-3-carboxylate]",–,14
"O=C(OCC12CCN(CC1)CC2)c1c[nH]c2ccc(F)c(Cl)c12 [Compound 62, quinuclidin-4-ylmethyl 4-chloro-5-fluoro-1H-indole-3-carboxylate hydrochloride]",–,5.91
"Cc1cc(Cl)cc2[nH]cc(C(=O)OCC34CCN(CC3)CC4)c12 [Compound 50, quinuclidin-4-ylmethyl 6-chloro-4-methyl-1H-indole-3-carboxylate]",∞,–
"Cc1cc(C#N)cc2[nH]cc(C(=O)OCC34CCN(CC3)CC4)c12 [Compound 60, quinuclidin-4-ylmethyl 6-cyano-4-methyl-1H-indole-3-carboxylate]",–,22.9
"COc1cc(Cl)c2c(C(=O)OCC34CCN(CC3)CC4)c[nH]c2c1 [Compound 38, quinuclidin-4-ylmethyl 4-chloro-6-methoxy-1H-indole-3-carboxylate]",∞,–
"CNCCCOc1ccc2[nH]cc(C(=O)OCC34CCN(CC3)CC4)c2c1C [Compound 96, quinuclidin-4-ylmethyl 4-methyl-5-(3-(methylamino)propoxy)-1H-indole-3-carboxylate dihydrochloride]",–,0.114
"COCCOc1ccc2[nH]cc(C(=O)OCC34CCN(CC3)CC4)c2c1C [Compound 91, quinuclidin-4-ylmethyl 5-(2-methoxyethoxy)-4-methyl-1H-indole-3-carboxylate]",–,8.32
"Cc1c(OCCO)ccc2[nH]cc(C(=O)OCC34CCN(CC3)CC4)c12 [Compound 95, quinuclidin-4-ylmethyl 5-(2-hydroxyethoxy)-4-methyl-1H-indole-3-carboxylate, 2,2,2-trifluoroacetate salt]",–,6.61
"Cc1cc(OC(=O)C(C)(C)C)cc2[nH]cc(C(=O)OCC34CCN(CC3)CC4)c12 [Compound 89, quinuclidin-4-ylmethyl 4-methyl-6-(pivaloyloxy)-1H-indole-3-carboxylate]",–,5.16
"Cc1c(OCC(F)(F)F)ccc2[nH]cc(C(=O)OCC34CCN(CC3)CC4)c12 [Compound 94, quinuclidin-4-ylmethyl 4-methyl-5-(2,2,2-trifluoroethoxy)-1H-indole-3-carboxylate]",–,5.74
"COc1c(OCC(F)(F)F)ccc2[nH]cc(C(=O)OCC34CCN(CC3)CC4)c12 [Compound 88, quinuclidin-4-ylmethyl 4-methoxy-5-(2,2,2-trifluoroethoxy)-1H-indole-3-carboxylate]",∞,–

# Same assay, conditions: human; Protocol 2; plasma pH 7.4 to 8.0, 5 μM, 37° C.; read-out: T1/2
row,Structure (SMILES),half-life at 5 μM [h]
1,"Cl.O=C(OCC12CCN(CC1)CC2)c1c[nH]c2cc(F)c(F)cc12 [Compound 51, Quinuclidin-4-ylmethyl 5,6-difluoro-1H-indole-3-carboxylate hydrochloride]",5.89
2,"Cl.O=C(OCC12CCN(CC1)CC2)c1c[nH]c2cc(C(F)(F)F)ccc12 [Compound 90, quinuclidin-4-ylmethyl 6-(trifluoromethyl)-1H-indole-3-carboxylate]",3.05
3,"Cc1ccc2c(C(=O)OCC34CCN(CC3)CC4)c[nH]c2c1.Cl [Compound 45, Quinuclidin-4-ylmethyl 6-methyl-1H-indole-3-carboxylate hydrochloride]",1.93
4,"Cc1cc2[nH]cc(C(=O)OCC34CCN(CC3)CC4)c2cc1F [Compound 72, Quinuclidin-4-ylmethyl 5-fluoro-6-methyl-1H-indole-3-carboxylate hydrochloride]",3.8
5,"Cl.O=C(OCC12CCN(CC1)CC2)c1c[nH]c2cc(Cl)cc(Cl)c12 [Compound 71, quinuclidin-4-ylmethyl 4,6-dichloro-1H-indole-3-carboxylate hydrochloride]",4.71
6,"COc1cc(Cl)cc2[nH]cc(C(=O)OCC34CCN(CC3)CC4)c12.Cl [Compound 74, quinuclidin-4-ylmethyl 6-chloro-4-methoxy-1H-indole-3-carboxylate hydrochloride]",2.94
7,"Cl.O=C(OCC12CCN(CC1)CC2)c1c[nH]c2cc(Cl)c(F)cc12 [Compound 52, Quinuclidin-4-ylmethyl 6-chloro-5-fluoro-1H-indole-3-carboxylate hydrochloride]",8.88
8,"Cc1cc2c(C(=O)OCC34CCN(CC3)CC4)c[nH]c2cc1C#N [Compound 84, quinuclidin-4-ylmethyl 6-cyano-5-methyl-1H-indole-3-carboxylate]",3.49
9,"O=C(OCC12CCN(CC1)CC2)c1c[nH]c2cc(O)cc(Br)c12 [Compound 53, quinuclidin-4-ylmethyl 4-bromo-6-hydroxy-1H-indole-3-carboxylate]",31.1
